Like-named read-outs stand apart in the source and are kept apart here.
System: stomach mucosa
Assay: cytoprotective activity in rats (ethanol-induced stomach mucosa lesions)
Format: in vivo, Sprague-Dawley rats
Conditions: for response vs control in vivo at 5 mg/kg / inhibition in vivo at 5 mg/kg: Rattus norvegicus, 1 h; for response vs control in vivo at 5 mg/kg / inhibition in vivo at 5 mg/kg / % Protection: 5 mg per kg oral, half hour before absolute ethanol 10 ml per kg oral; for response vs control in vivo at 5 mg/kg: average lesion length as % of control animals; for inhibition in vivo at 5 mg/kg: lesions vs control, read-out: LESIONS % reduction; for cytoprotective activity (in words): comparison of enantiomers and racemate, Table III; for % Protection: optically pure compounds of Example XIX
Procedure: A number of the 7-oxa prostanoic acid derivatives has been tested for cytoprotective activity in rats. In this test, Sprague-Dawley rats are fasted for 24 hours prior to the pretreatment. The pretreatment is oral administration of a 5 mg per kg body weight dose of the prostanoid in 2.5 ml of a vehicle consisting of Tween 80 (0.75%) and the balance water. The control animals are given 2.5 ml of the vehicle, without prostanoid. A half hour after the pretreatment, absolute ethanol is administered orally to the animals, in a dose of 10 ml per kg body weight. One hour later the animals are sacrificed, their stomachs dissected out, opened along the greater curvature and the mucose examined for lesions. The average lesion length is expressed as percentage of the average lesion length found in the stomach mucosa of control animals.
Importantly, this test measures the active cytoprotective properties of the prostanoids, independent of the gastric secretion inhibition that these compounds may or may not show. The test is discussed more fully by Robert et al., Gastroenterology 77 (1979) 433, incorporated herein by reference.
methyl-7-oxa-9-oxo-Prostanoate derivatives were tested for cytoprotective properties. The compounds differed with respect to the nature of the C13 -C14 bond (triple, cis or trans double, or single), the substituent(s) at the 15-position and at the 16-position. […]
The optically pure compounds of Example XIX were tested for cytoprotective activity. The following results were obtained (Table III).

[1] = methyl-7-oxa-9-alpha-hydroxy prost-13,14-ynoate derivatives
[2] = 7-oxa-9-oxo-methyl prostanoate derivatives

Compound	response vs control in vivo at 5 mg/kg [2]	inhibition in vivo at 5 mg/kg [2]	also measured
CCCCC(C)(C)C(O)C#C[C@H]1CC[C@H](O)[C@@H]1OCCCCCC(=O)OC (relative stereo)			response vs control in vivo at 5 mg/kg [1]: 83%; inhibition in vivo at 5 mg/kg [1]: 17%
CCCCCC(=O)C#C[C@H]1CC[C@H](O)[C@@H]1OCCCCCC(=O)O (relative stereo)			response vs control in vivo at 5 mg/kg [1]: 7%; inhibition in vivo at 5 mg/kg [1]: 93%
CCCCCC(O)/C=C\[C@H]1CCC(=O)[C@@H]1OCCCCCC(=O)OC (relative stereo) [cis (R,S)OH H,H (7-oxa-9-oxo), methyl-15-hydroxy-7-oxa-9-oxo-cis-prost-13-14-enoate]	31%	69%	
CCCCCC(C)(O)/C=C\[C@H]1CCC(=O)[C@@H]1OCCCCCC(=O)OC (relative stereo) [cis (R,S)OH,Me H,H (7-oxa-9-oxo)]	71%	29%	
CCCCCC(=O)/C=C\[C@H]1CCC(=O)[C@@H]1OCCCCCC(=O)OC (relative stereo) [cis oxo H,H (7-oxa-9-oxo), methyl-9,15-dioxo-7-oxa-cis-prost-13,14-enoate]	113%	-13%	
CCCCCC(O)C#C[C@H]1CC[C@H](O)[C@@H]1OCCCCCC(=O)OC (relative stereo) [methyl-9-alpha-hydroxy-15-hydroxy-7-oxa-Prost-13,14-ynoate]			response vs control in vivo at 5 mg/kg [1]: 93%; inhibition in vivo at 5 mg/kg [1]: 7%
CCCCCC(C)(O)CC[C@H]1CCC(=O)[C@@H]1OCCCCCC(=O)OC (relative stereo) [single (R,S)OH,Me H,H (7-oxa-9-oxo)]	67%	33%	
CCCCCC(=O)CC[C@H]1CCC(=O)[C@@H]1OCCCCCC(=O)OC (relative stereo) [single oxo H,H (7-oxa-9-oxo)]	128%	-28%	
CCCCCC(C)(O)/C=C/[C@H]1CCC(=O)[C@@H]1OCCCCCC(=O)OC (relative stereo) [trans (R,S)OH,Me H,H (7-oxa-9-oxo)]	54%	46%	
CCCCCC(=O)/C=C/[C@H]1CCC(=O)[C@@H]1OCCCCCC(=O)OC (relative stereo) [trans oxo H,H (7-oxa-9-oxo)]	118%	-18%	
CCCCCC(O)C#C[C@H]1CCC(=O)[C@@H]1OCCCCCC(=O)OC (relative stereo) [triple (R,S)OH H,H (7-oxa-9-oxo), methyl 15-hydroxy-7-oxa-9-oxo-prost-13,14-ynoate]	31%	69%	
CCCCCC(C)(O)C#C[C@H]1CCC(=O)[C@@H]1OCCCCCC(=O)OC (relative stereo) [triple (R,S)OH,Me H,H (7-oxa-9-oxo)]	82%	18%	
CCCCCCC#C[C@H]1CC[C@H](O)[C@@H]1OCCCCCC(=O)OC (relative stereo) [triple H,H H,H (7-oxa-9-alpha-hydroxy)]			response vs control in vivo at 5 mg/kg [1]: 90%; inhibition in vivo at 5 mg/kg [1]: 10%
CCCCCCC#C[C@H]1CCC(=O)[C@@H]1OCCCCCC(=O)OC (relative stereo) [triple H,H H,H (7-oxa-9-oxo)]	81%	19%	
CCCCCC(=O)C#C[C@H]1CC[C@H](O)[C@@H]1OCCCCCC(=O)OC (relative stereo) [triple oxo H,H (7-oxa-9-alpha-hydroxy), methyl 9-alpha-hydroxy-7-oxa-15-oxo-prost-13,14-ynoate]			response vs control in vivo at 5 mg/kg [1]: 20%; inhibition in vivo at 5 mg/kg [1]: 80%
CCCCCC(=O)C#C[C@H]1CCC(=O)[C@@H]1OCCCCCC(=O)OC (relative stereo) [triple oxo H,H (7-oxa-9-oxo), methyl-9,15-dioxo-7-oxa-prost-13,14-ynoate]	4%	96%	cytoprotective activity (in words): the same
CCCCC(C)(C)C(=O)C#C[C@H]1CCC(=O)[C@@H]1OCCCCCC(=O)OC (relative stereo) [triple oxo Me,Me (7-oxa-9-oxo)]	16%	84%	
CCCCC[C@H](O)C#CC1CCC(=O)C1OCCCCCC(=O)OC (stereo partly drawn) [(18), methyl-(S)-15-hydroxy-7-oxa-9-oxo-prost-13,14-ynoate]			cytoprotective activity (in words): high cytoprotective activity; % Protection: 96%
CCCCC[C@@H](O)C#CC1CCC(=O)C1OCCCCCC(=O)OC (stereo partly drawn) [(19), methyl-(R)-15-hydroxy-7-oxa-9-oxo-prost-13,14-ynoate]			% Protection: -34%
